This is an account of results in US11377441B2, “Covalent inhibitors of KRAS” (Araxes Pharma LLC, priority 2017, dated 2022).

Each structure is given as a SMILES string.

The target in this test is T1, KRAS G12C 1-169, his-tagged protein, GDP-loaded (Homo sapiens, UniProt P01116, G12C).
T1 construct: KRAS G12C 1-169, his-tagged protein, GDP-loaded
The test can be described thus: Biochemical assay: covalent modification of KRAS G12C measured by mass spectrometry (RapidFire/TOF or Q-Exactive). The settings on record: covalent binding to (modification of) KRAS G12C after a ten minute incubation period. The class given is binding. Put shortly: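 Intact-mass readout (TOF or Q-Exactive, charge-envelope deconvolution) gives percent covalent adduct from modified and unmodified species. Compound at 10, 30 or 100 μM was incubated at room temperature for 10 min to 24 h with 2 μM or 0.5 μM GDP-bound KRAS G12C 1-169 in Hepes/NaCl/MgCl2 buffer, then acid-quenched.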
Take `C=CC(=O)N1C[C@H](C)N(c2nc(N3CC(N(C)C)C3)nc3c(F)c(-c4c(C)ccc5[nH]nc(C6CC6)c45)c(Cl)cc23)C[C@H]1C` (atropisomer, axis not shown) [Compound 75, 1-((2R,5S)-4-((S)-6-chloro-7-(3-cyclopropyl-5-methyl-1H-indazol-4-yl)-2-(3-(dimethylamino)azetidin-1-yl)-8-fluoroquinazolin-4-yl)-2,5-dimethylpiperazin-1-yl)prop-2-en-1-one]: the Binding % entry is “+ (+ indicates binding activity greater than 0% and up to 50%)”.
`C=CC(=O)N1C[C@H](C)N(c2nc(OC[C@@H]3CCN(C)C3)nc3c(F)c(-c4c(C)ccc5[nH]nc(C)c45)c(Cl)cc23)C[C@H]1C` [Compound 175, 1-((2R,5S)-4-(6-chloro-7-(3,5-dimethyl-1H-indazol-4-yl)-8-fluoro-2-(((R)-1-methylpyrrolidin-3-yl)methoxy)quinazolin-4-yl)-2,5-dimethylpiperazin-1-yl)prop-2-en-1-one]: the Binding % entry is listed as “++ (++ indicates binding activity from 50 to 80%)”.
The result for `[2H]C([2H])([2H])N(C1CN(c2nc(N3C[C@@H](C)N(C(=O)C=C)C[C@@H]3C)c3cc(Cl)c(-c4c(C)ccc5cnn(C6CC6)c45)c(F)c3n2)C1)C([2H])([2H])[2H]` [Compound 213, 1-((2R,5S)-4-((S)-6-chloro-7-(1-cyclopropyl-6-methyl-1H-indazol-7-yl)-2-(3-(di-perdeuteromethylamino)azetidin-1-yl)-8-fluoroquinazolin-4-yl)-2,5-dimethylpiperazin-1-yl)prop-2-en-1-one] reads “+ (+ indicates binding activity greater than 0% and up to 50%)”; that for `C=CC(=O)N1C[C@@H](C)N(c2nc(N3CC(N(C)C)C3)nc3c(F)c(-c4c(C)ccc5cnn(C)c45)c(Cl)cc23)C[C@H]1C` (atropisomer, axis not shown) [Compound 242, 1-((2R,5R)-4-((S)-6-chloro-7-(1,6-dimethyl-1H-indazol-7-yl)-2-(3-(dimethylamino)azetidin-1-yl)-8-fluoroquinazolin-4-yl)-2,5-dimethylpiperazin-1-yl)prop-2-en-1-one], “+ (+ indicates binding activity greater than 0% and up to 50%)”.
Regarding `C=CC(=O)N1C[C@H](C)N(c2nc(OC[C@@H]3CN(C)CCO3)nc3c(F)c(-c4c(C)ccc5cnn(C)c45)c(Cl)cc23)C[C@H]1C` [Compound 176, 1-((2R,5S)-4-(6-chloro-7-(1,6-dimethyl-1H-indazol-7-yl)-8-fluoro-2-(((S)-4-methylmorpholin-2-yl)methoxy)quinazolin-4-yl)-2,5-dimethylpiperazin-1-yl)prop-2-en-1-one], the Binding % result is on record as “+++ (+++ indicates binding activity greater than 80%)”.
The result for `C=CC(=O)N1C[C@H](C)N(c2nc(N3CC(N(C)C)C3)nc3c(F)c(-c4c(C)ccc5cnn(C)c45)c(Cl)cc23)C[C@H]1C` (atropisomer, axis not shown) [Compound 87, 1-((2R,5S)-4-((R)-6-chloro-7-(1,6-dimethyl-1H-indazol-7-yl)-2-(3-(dimethylamino)azetidin-1-yl)-8-fluoroquinazolin-4-yl)-2,5-dimethylpiperazin-1-yl)prop-2-en-1-one] reads “+++ (+++ indicates binding activity greater than 80%)”.
The result for `C=CC(=O)N1C[C@H](C)N(c2nc(N3CC(N(C)C)C3)nc3c(F)c(-c4c(C)ccc5cnn(C)c45)c(Cl)cc23)C[C@H]1C` [Compound 120, 1-((2R,5S)-4-(6-chloro-7-(1,6-dimethyl-1H-indazol-7-yl)-2-(3-(dimethylamino)azetidin-1-yl)-8-fluoroquinazolin-4-yl)-2,5-dimethylpiperazin-1-yl)prop-2-en-1-one] reads “++ (++ indicates binding activity from 50 to 80%)”; that for `C=CC(=O)N1C[C@H](C)N(c2nc(N3CC(N(C)C)C3)nc3c(F)c(-c4c(C)ccc5cn(C)nc45)c(Cl)cc23)C[C@H]1C` (atropisomer, axis not shown) [Compound 105, 1-((2R,5S)-4-((R)-6-chloro-7-(2,6-dimethyl-2H-indazol-7-yl)-2-(3-(dimethylamino)azetidin-1-yl)-8-fluoroquinazolin-4-yl)-2,5-dimethylpiperazin-1-yl)prop-2-en-1-one], “++ (++ indicates binding activity from 50 to 80%)”.
The result for `C=CC(=O)N1C[C@H](C)N(c2nc(N3CC(N(C)C)C3)nc3c(F)c(-c4c(C)ccc5[nH]c(=O)[nH]c45)c(Cl)cc23)C[C@H]1C` [Compound 82, 4-(4-((2S,5R)-4-acryloyl-2,5-dimethylpiperazin-1-yl)-6-chloro-2-(3-(dimethylamino)azetidin-1-yl)-8-fluoroquinazolin-7-yl)-5-methyl-1H-benzo[d]imidazol-2(3H)-one] reads “+++ (+++ indicates binding activity greater than 80%)”; that for `C=CC(=O)N1C[C@H](C)N(c2nc(N3CC(N(C)C)C3)nc3c(F)c(-c4ccc(Cl)c5[nH]ncc45)c(Cl)cc23)C[C@H]1C` [Compound 30, 1-((2R,5S)-4-(6-chloro-7-(7-chloro-1H-indazol-4-yl)-2-(3-(dimethylamino)azetidin-1-yl)-8-fluoroquinazolin-4-yl)-2,5-dimethylpiperazin-1-yl)prop-2-en-1-one], “+ (+ indicates binding activity greater than 0% and up to 50%)”.
As for `C=CC(=O)N1C[C@H](C)N(c2nc(OCCN3CCC(F)(F)C3)nc3c(F)c(-c4c(C)ccc5cnn(C)c45)c(Cl)cc23)C[C@H]1C` (atropisomer, axis not shown) [Compound 136, 1-((2R,5S)-4-((R)-6-chloro-2-(2-(3,3-difluoropyrrolidin-1-yl)ethoxy)-7-(1,6-dimethyl-1H-indazol-7-yl)-8-fluoroquinazolin-4-yl)-2,5-dimethylpiperazin-1-yl)prop-2-en-1-one], the Binding % result is reported as “+++ (+++ indicates binding activity greater than 80%)”.
The result for `C=CC(=O)N1C[C@H](C)N(c2nc(N3CC(N(C)C)C3)nc3c(F)c(-c4c(C)ccc5nn(C)cc45)c(Cl)cc23)C[C@H]1C` (atropisomer, axis not shown) [Compound 88, 1-((2R,5S)-4-((R)-6-chloro-7-(2,5-dimethyl-2H-indazol-4-yl)-2-(3-(dimethylamino)azetidin-1-yl)-8-fluoroquinazolin-4-yl)-2,5-dimethylpiperazin-1-yl)prop-2-en-1-one] reads “++ (++ indicates binding activity from 50 to 80%)”; that for `C=CC(=O)N1C[C@H](C)N(c2nc(OCCN3CCC(F)CC3)nc3c(F)c(-c4c(C)ccc5[nH]nc(N)c45)c(Cl)cc23)C[C@H]1C` [Compound 70, 1-((2R,5S)-4-(7-(3-amino-5-methyl-1H-indazol-4-yl)-6-chloro-8-fluoro-2-(2-(4-fluoropiperidin-1-yl)ethoxy)quinazolin-4-yl)-2,5-dimethylpiperazin-1-yl)prop-2-en-1-one], “+++ (+++ indicates binding activity greater than 80%)”.
The result for `C=CC(=O)N1C[C@H](C)N(c2nc(NCCC(=O)N3CCCC3)nc3c(F)c(-c4c(C)ccc5[nH]nc(N)c45)c(Cl)cc23)C[C@H]1C` [Compound 60, 1-((2R,5S)-4-(7-(3-amino-5-methyl-1H-indazol-4-yl)-6-chloro-8-fluoro-2-(3-oxo-3-(pyrrolidin-1-yl)propylamino)quina-zolin-4-yl)-2,5-dimethylpiperazin-1-yl)prop-2-en-1-one] reads “+++ (+++ indicates binding activity greater than 80%)”; that for `C=CC(=O)N1C[C@H](C)N(c2nc(OC[C@H]3CCN(C)C3)nc3c(F)c(-c4c(C)ccc5cnn(C6CC6)c45)c(Cl)cc23)C[C@H]1C` [Compound 198, 1-((2R,5S)-4-(6-chloro-7-(1-cyclopropyl-6-methyl-1H-indazol-7-yl)-8-fluoro-2-(((S)-1-methylpyrrolidin-3-yl)methoxy)quinazolin-4-yl)-2,5-dimethylpiperazin-1-yl)prop-2-en-1-one], “++ (++ indicates binding activity from 50 to 80%)”; that for `C=CC(=O)N1C[C@H](C)N(c2nc(N3CC(N(C)C)C3)nc3c(F)c(-c4c(C)ccc5[nH]nc(N(C)C)c45)c(Cl)cc23)C[C@H]1C` [Compound 42, 1-((2R,5S)-4-(6-chloro-7-(3-(dimethylamino)-5-methyl-1H-indazol-4-yl)-2-(3-(dimethylamino)azetidin-1-yl)-8-fluoroquinazolin-4-yl)-2,5-dimethylpiperazin-1-yl)prop-2-en-1-one], “+ (+ indicates binding activity greater than 0% and up to 50%)”.
The result for `C=CC(=O)N1C[C@H](C)N(c2nc(OCCN3CCOCC3)nc3c(F)c(-c4c(C)ccc5[nH]nc(C6CC6)c45)c(Cl)cc23)C[C@H]1C` (atropisomer, axis not shown) [Compound 112, 1-((2R,5S)-4-((S)-6-chloro-7-(3-cyclopropyl-5-methyl-1H-indazol-4-yl)-8-fluoro-2-(2-morpholinoethoxy)quina-zolin-4-yl)-2,5-dimethylpiperazin-1-yl)prop-2-en-1-one] reads “+ (+ indicates binding activity greater than 0% and up to 50%)”.
`C=CC(=O)N1C[C@H](C)N(c2nc(N3CC(N(C)C)C3)nc3c(F)c(-c4c(C)ccc5[nH]nc(N)c45)c(Cl)cc23)C[C@H]1C` (atropisomer, axis not shown) [Compound 35, 1-((2R,5S)-4-((R)-7-(3-amino-5-methyl-1H-indazol-4-yl)-6-chloro-2-(3-(dimethylamino)azetidin-1-yl)-8-fluoroquinazolin-4-yl)-2,5-dimethylpiperazin-1-yl)prop-2-en-1-one]: the Binding % result is listed as “+++ (+++ indicates binding activity greater than 80%)”.
On to `C=CC(=O)N1C[C@H](C)N(c2nc(N3CC(N(C)C)C3)nc3c(F)c(-c4c(C)ccc5onc(Cl)c45)c(Cl)cc23)C[C@H]1C` [Compound 99, 1-((2R,5S)-4-(6-chloro-7-(3-chloro-5-methylbenzo[d]isoxazol-4-yl)-2-(3-(dimethylamino)azetidin-1-yl)-8-fluoroquinazolin-4-yl)-2,5-dimethylpiperazin-1-yl)prop-2-en-1-one], for which the Binding % result is “+ (+ indicates binding activity greater than 0% and up to 50%)”.
